pIC50: −log10 of the molar value.
Columns and labels:
Format in all cases: cell-based
H322 = assay: Therapeutic effect of cancer cell line, IC50; conditions: NCI-H322; H322, NAPRT expression negative
H661 = assay: Therapeutic effect of cancer cell line, IC50; conditions: Homo sapiens, NCI-H661; H661, NAPRT expression negative
H1115 = assay: Therapeutic effect of cancer cell line, IC50; conditions: H1115, NAPRT expression negative
liver cell (THLE-2) = assay: Toxicity assessment in normal cell line, cell viability
liver cell (THLE-3) = assay: Toxicity evaluation in normal cell line, cell viability
H1299 = assay: Therapeutic effect of cancer cell line, IC50; conditions: Homo sapiens, NCI-H1299; H1299, NAPRT expression positive
H1975 = assay: Therapeutic effect of cancer cell line, IC50; conditions: Homo sapiens, NCI-H1975; H1975, NAPRT expression positive
H1993 = assay: Therapeutic effect of cancer cell line, IC50; conditions: Homo sapiens, NCI-H1993; H1993, NAPRT expression positive
H2030 = assay: Therapeutic effect of cancer cell line, IC50; conditions: Homo sapiens, NCI-H2030; H2030, NAPRT expression positive
H2122 = assay: Therapeutic effect of cancer cell line, IC50; conditions: Homo sapiens, NCI-H2122; H2122, NAPRT expression positive
HBEC30 = assay: Therapeutic effect of cancer cell line, IC50; conditions: HBEC30, NAPRT expression positive
H322 cell line = assay: Toxic mechanism in cancer cell lines: intracellular NAD, ATP and total protein; conditions: H322, 2.5 μM
Procedure: To investigate the direct effect of the compound according to the present invention on the catalytic activity of NamPT enzyme, after treating H322 cell line with 2.5 μM of the compound of the Synthesis Example 4, the intracellular NAD, ATP and total protein was measured, with the results depicted in FIG. 20.

O=C(Nc1ccc2c(c1)CN(C(=O)/C=C/c1cccnc1)CC2)c1ccncc1 [B1963]
pIC50 (H322): 6.41

O=C(NCc1ccc(OCc2ccccn2)cc1)c1cccnc1 [B1979]
pIC50 (H322): 6.11

CC(C)(C)c1ccc2nc(-c3ccc(CNC(=O)c4cccnc4)cc3)oc2c1 [A4263]
pIC50 (H322): > 7.52
pIC50 (H661): 6.00
pIC50 (H1115): > 6.52

O=C(NCc1ccc(-c2nc3ccc([N+](=O)[O-])cc3o2)cc1)c1cccnc1 [A4261]
pIC50 (H322): 7.52
pIC50 (H661): > 6.52
pIC50 (H1115): > 7.00

COc1ccc2oc(-c3ccc(CNC(=O)c4cccnc4)cc3)nc2c1 [B1474]
pIC50 (H322): 7.30

O=C(NCc1ccc(-c2nc3ccccc3o2)cc1)c1cccnc1 [B1470]
pIC50 (H322): 7.22

O=C(NCc1ccc(S(=O)(=O)c2cc(F)cc(F)c2)cc1)c1ccc2nccn2c1 [GNE617, N-(4-((3,5-difluorophenyl)sulfonyl)benzyl)imidazo[1,2-a]pyridine-6-carboxamide, reference compound]
pIC50 (liver cell (THLE-2); Homo sapiens, THLE-2, FIG. 25): ~7.30
pIC50 (liver cell (THLE-3); THLE3, THLE-3, FIG. 26): ~7.30

O=C(NCc1ccc(-c2nc3cnccc3o2)cc1)c1cccnc1 [B1471, N-(4-(oxazolo[4,5-c]pyridin-2-yl)benzyl)nicotinamide]
pIC50 (H322): > 7.62
pIC50 (H661): 6.15
pIC50 (H1115): < 6.00
pIC50 (H1299): 4.00
pIC50 (H1975): < 4.00
pIC50 (H1993): < 4.00
pIC50 (H2030): < 4.00
pIC50 (H2122): < 4.00
pIC50 (HBEC30): < 4.00
amount of ATP (H322 cell line): remarkably decreased
amount of NAD (H322 cell line): remarkably decreased
total amount of protein compared to the negative control (H322 cell line): decrease

CCc1ccc2nc(-c3ccc(CNC(=O)c4cccnc4)cc3)oc2c1 [A4302]
pIC50 (H322): 7.00
pIC50 (H661): 7.00
pIC50 (H1115): > 6.52

O=C(/C=C/c1cccnc1)NCCCN1CCc2ccccc21 [B1975]
pIC50 (H322): 5.92

CC(C)c1cc(C(F)(F)F)n2nc([C@H]3CCN(C(=O)/C=C/c4cccnc4)C3)cc2n1 [B1964]
pIC50 (H322): 6.70

COc1ccc(-c2noc(C(=O)NCCNC(=O)c3cccnc3)n2)cc1 [B1866]
pIC50 (H322): 5.00

O=C(NCCNC(=O)c1ccc2ccccc2n1)c1cccnc1 [B1872]
pIC50 (H322): 5.00

CCc1ccc2oc(-c3ccc(CNC(=O)c4cccnc4)cc3)nc2c1 [Drug3, N-(4-(5-ethylbenzo[d]oxazol-2-yl)benzyl)nicotinamide]
pIC50 (H322): 6.00
pIC50 (H661): > 6.00
pIC50 (H1115): > 5.51

CCN(CC)Cc1ccc(CNC(=O)c2cccnc2)cc1 [B1982]
pIC50 (H322): 4.92

O=C(Nc1ccc(C(=O)c2cc3ccccc3o2)cc1)c1cccnc1 [B1484]
pIC50 (H322): 7.30

CC(C)OC(=O)c1ccc(NC(=O)c2cccnc2)cc1 [B1416]
pIC50 (H322): > 5.81

Cc1ccc(-c2noc(C(=O)NCCNC(=O)c3cccnc3)n2)cc1 [B1857]
pIC50 (H322): 5.00

Cc1ccc(-c2nc3cc(NC(=O)c4cccnc4)ccc3o2)cc1C [B1716]
pIC50 (H322): 4.90

Cc1nnc2sc(-c3ccc(CNC(=O)c4cccnc4)cc3)nn12 [B1468]
pIC50 (H322): > 7.62
pIC50 (H661): < 6.00
pIC50 (H1115): 5.50
pIC50 (H1299): < 4.00
pIC50 (H1975): < 4.00
pIC50 (H1993): < 4.00
pIC50 (H2030): < 4.00
pIC50 (H2122): < 4.00
pIC50 (HBEC30): < 4.00
toxicity (liver cell (THLE-2); THLE-2, very high concentrations of 50 μM): little toxicity
toxicity (liver cell (THLE-3); THLE-3, very high concentrations of 50 μM): little toxicity

COC(=O)c1ccc(NC(=O)c2cccnc2)cc1 [B1380]
pIC50 (H322): 5.20
pIC50 (H661): 5.60
pIC50 (H1993): < 4.90
pIC50 (H2122): < 4.90
pIC50 (HBEC30): < 4.90

CC(C)c1ccc2oc(-c3ccc(NC(=O)c4cccnc4)cc3)nc2c1 [B1479]
pIC50 (H322): 5.30
